From patent US9440989B2, “Antifibrinolytic compounds” (PROYECTO DE BIOMEDICINA CIMA, S.L., priority 2012, dated 2016)
pEC50: −log10 of the molar value. Read-outs that look alike come from different tables or passages of the source. Marks after values point to notes of the source that are not given here.

Legend:
[1] = tested on: tail bleeding in wild-type C57B16 mice; test: Tail bleeding assay, traditional bleeding model; assay type: in vivo; conditions: intraperitoneal 4 mg/mouse, 160 mg/Kg, tail tip removed 30 min after injection, n = 10
Method: (§1) Bleeding time was evaluated in 2 months old wild-type C57B16 (n=10) mice by removing the tail tip. Mice (20-25 g) were anaesthetized with 2.5% isoflurane and maintained at 37° C. on heating pads. The hemostatic efficacy was evaluated in 2 models, traditional bleeding model and hyperfibrinolytic bleeding model.
Traditional bleeding model consisted in intraperitoneal injection of different compounds (4 mg/mouse, 160 mg/Kg) dissolved in 2% carboxymethyl cellulose or vehicle. Thirty minutes after injection, 5 mm of tail tip were removed using a scalpel blade and the tail tip bathed in 1 mL of sterile saline at 37° C. The time to cessation of bleeding was measured up to 30 min. The time of bleeding was defined as the interval between initial transection and the visual cessation of bleeding.

[2] = tested on: human blood (whole blood clot lysis, tPA); test: Thromboelastometry (ROTEM, modified in-tem with tPA): whole blood clot formation and lysis, human blood; conditions: read-out: EC50LT (effective concentration to delay lysis time by 50%)
Method: A modification of in-tem test as described below was used for the examination of antifibrinolytic effects of tested compounds and its interaction with platelets in citrated blood.
In a pre-warmed cuvette and holder 1 μL of Tissue plasminogen activator (tPA) (150,000 U/mL, Actylise), 20 μL of start-tem reagent (CaCl2), 20 μL of in-tem reagent (activators of coagulation system), 3 μL of DMSO (control) or tested compounds (CMs) in DMSO and 300 μL of citrated blood pre-warmed were pipetted. The cup holder containing the sample mixture was placed immediately on the appropriate channel. The measurement was recorded for 60 min to allow clot formation and lysis.

[3] = tested on: mice blood (whole blood clot lysis, tPA); test: Thromboelastometry (ROTEM, modified in-tem with tPA): whole blood clot formation and lysis, mice blood; assay type: cell-based; conditions: Mus musculus, read-out: EC50LT (effective concentration to delay lysis time by 50%), assayed concentrations 1000-0.2 μM
[4] = tested on: tPA-prolonged tail bleeding in wild type mice (C57/Bl6); test: Tail bleeding assay, hyperfibrinolytic bleeding model (tPA 0.5 mg/kg); assay type: in vivo; conditions: n≧10
Method: as §1
Hyperfibrinolytic bleeding model, consisted in injection of 0.5 mg/kg tPA into the ocular plexus to prolong bleeding time due to excessive fibrinolysis. […] The catheter was connected to a syringe pump (AL-1000, WPI) for the infusion of 200 μL (10% bolus, 90% perfusion during 40 minutes) of tested agents. Then, tPA (0.5 mg/kg) was injected into the ocular plexus and five minutes after tPA administration, saline or the different compounds was infused through the femoral catheter to ensure systemic distribution of all the agents. Reference compounds, TXA and Aprotinin, were administered at 300 and 10 mg/Kg respectively; however, all compounds of the invention were administered at 1 mg/Kg. Five minutes later, 5 mm of tail tip were removed using a scalpel blade and the tail tip bathed in 1 mL of sterile saline at 37° C.
The time of bleeding was defined as the interval between initial transections and the visual cessation of bleeding, that was measured up to 30 minutes. A value of 30 min was assigned to those animals bleeding longer than the observation period. […] Bleeding time was determined in wild type mice (C57/Bl6), where n≧10 per assayed compound; therefore, BT is reported as a mean value—in the case of saline, BT is reported as mean±ESM.

[5] = 1 mg/Kg infused via femoral vein
[6] = human blood, tPA, assayed concentrations 1000-0.2 μM

Row | pEC50 ([2]; Homo sapiens) | Molecule | BT (bleeding time, mean) [4, 5] | other results
1 | > 6.00 | COc1ccc(Oc2ccc(S(=O)(=O)C3(C(=O)NO)CCC4(CCCNC4)CC3)cc2)cc1 (centres unmarked) [Example 1-01] | – | Bleeding time [1]: 31.0 ± 3.6 s
2 | 4.60 to 5.00 | COc1ccc(Oc2ccc(S(=O)(=O)C3(C(=O)NO)CCC4(CCCN(C)C4)CC3)cc2)cc1 (centres unmarked) [Example 1-02] | – | Bleeding time [1]: 39.2 ± 4.7 s
3 | > 6.00 | O=C(O)c1ccc(Oc2ccc(S(=O)(=O)C3(C(=O)NO)CCC4(CCNCC4)C3)cc2)cc1 (centres unmarked) [Example 1-07] | ++* (10 minutes≦BT<20 minutes (++)) | pEC50 [3]: > 9.00
4 | > 6.00 | CNC(=O)c1ccc(Oc2ccc(S(=O)(=O)C3(C(=O)NO)CCC4(CCNCC4)C3)cc2)cc1 (centres unmarked) [Example 1-08] | ++++**†† (BT<5 minutes (++++)) | pEC50 [3]: 6.00 to 9.00
5 | > 6.00 | O=C(NO)C1(S(=O)(=O)c2ccc(NC3CCCCC3)cc2)CCC2(CCNCC2)C1 (centres unmarked) [Example 1-14] | ++++**†† (BT<5 minutes (++++)) | pEC50 [3]: 6.00 to 9.00
6 | > 6.00 | O=C(NO)C1(S(=O)(=O)c2ccc(Oc3ccc(OC(F)(F)F)cc3)cc2)CCC2(CCNCC2)C1 (centres unmarked) [Example 1-73] | ++++**†† (BT<5 minutes (++++)) | pEC50 [3]: 5.00 to 6.00
7 | > 6.00 | O=C(NO)C1(S(=O)(=O)c2ccccc2NC2CCCCC2)CCC2(CCNCC2)C1 (centres unmarked) [Example 1-79] | ++** (10 minutes≦BT<20 minutes (++)) | –
8 | > 6.00 | O=C(NO)C1(S(=O)(=O)c2ccc(NC3CCCCC3)c(Cl)c2)CCC2(CCNCC2)C1 (centres unmarked) [Example 1-80] | +++**† (5 minutes≦BT<10 minutes (+++)) | –
9 | > 6.00 | O=C(NO)C1(S(=O)(=O)c2ccc(NCC3CCCCC3)cc2)CCC2(CCNCC2)C1 (centres unmarked) [Example 1-82] | +++** (5 minutes≦BT<10 minutes (+++)) | –
10 | > 6.00 | O=C(NO)C1(S(=O)(=O)c2ccc(NC3CCOCC3)cc2)CCC2(CCNCC2)C1 (centres unmarked) [Example 1-96] | +++** (5 minutes≦BT<10 minutes (+++)) | –
11 | < 4.60 | O=C(Oc1ccc(S(=O)(=O)C2(C(=O)NO)CCC3(CCNCC3)C2)cc1)c1ccc(OC(F)(F)F)cc1 (centres unmarked) [Example 1-102] | ++* (10 minutes≦BT<20 minutes (++)) | –
12 | > 6.00 | COc1ccc(S(=O)(=O)C2(C(=O)NO)CCC3(CCNCC3)C2)cc1Cl (centres unmarked) [Example 1-107] | +++** (5 minutes≦BT<10 minutes (+++)) | –
13 | > 6.00 | O=C(NO)C1(S(=O)(=O)c2ccc(OCc3cn[nH]c3)cc2)CCC2(CCNCC2)C1 (centres unmarked) [Example 1-112] | +++** (5 minutes≦BT<10 minutes (+++)) | –
14 | < 4.60 | CNC(=O)c1ccc(Oc2cccc(S(=O)(=O)C3(C(=O)NO)CCC4(CCNCC4)C3)c2)cc1 (centres unmarked) [Example 1-126] | – | –
15 | > 6.00 | O=C(O)c1ccc(Oc2cccc(S(=O)(=O)C3(C(=O)NO)CCC4(CCNCC4)C3)c2)cc1 (centres unmarked) [Example 1-127] | – | –
16 | < 4.60 | O=C(Oc1ccc(S(=O)(=O)C2(C(=O)NO)CCC3(CCNCC3)C2)cc1Cl)c1ccc(OC(F)(F)F)cc1 (centres unmarked) [Example 1-128, N-hydroxy-3-(3-chloro-4-(4-(trifluoromethoxy)Benzoyloxy)Phenylsulfonyl)-8-azaspiro[4.5]decane-3-carboxamide] | – | –
17 | 5.00 to 6.00 | COc1ccc(C(=O)Oc2ccc(S(=O)(=O)C3(C(=O)NO)CCC4(CCNCC4)C3)cc2Cl)cc1 (centres unmarked) [Example 1-129] | – | –
18 | 5.00 to 6.00 | O=C(NO)C1(S(=O)(=O)c2cccc(OCc3ccc(OC(F)(F)F)cc3)c2)CCC2(CCNCC2)C1 (centres unmarked) [Example 1-130] | – | –
19 | > 6.00 | COc1ccc(S(=O)(=O)[C@]2(C(=O)NO)CCC3(CCNCC3)C2)cc1Cl [Example 1-131] | – | –
20 | > 6.00 | COc1ccc(S(=O)(=O)[C@@]2(C(=O)NO)CCC3(CCNCC3)C2)cc1Cl [Example 1-132] | – | –
21 | – | CNC(=O)c1ccc(Oc2ccc(S(=O)(=O)C3(C(=O)NO)CCC4(CCNCC4)C3)cc2)cc1 (centres unmarked) [Example 1-133] | – | pEC50 [2, 6]: > 6.00
22 | – | CNC(=O)c1ccc(Oc2ccc(S(=O)(=O)C3(C(=O)NO)CCC4(CCNCC4)C3)cc2)cc1 (centres unmarked) [Example 1-134] | – | pEC50 [2, 6]: > 6.00
23 | – | O=C(NO)C1(S(=O)(=O)c2ccccc2NC2CCCCC2)CCC2(CCNCC2)C1 (centres unmarked) [Example 1-138] | – | pEC50 [2, 6]: > 6.00
24 | 5.00 to 6.00 | NC[C@H]1CC[C@H](C(=O)O)CC1 [TXA, tranexamic acid, reference compound] | – | pEC50 [3]: 6.00 to 9.00; BT (bleeding time, mean) ([4]; 300 mg/Kg infused via femoral vein): ++** (10 minutes≦BT<20 minutes (++))
25 | – | Aprotinin [reference compound] | – | BT (bleeding time, mean) ([4]; 10 mg/Kg infused via femoral vein): ++** (10 minutes≦BT<20 minutes (++))
